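Five compound concentrations were applied to cells in 96-well plates for 48 hours; endpoints were derived by simple linear interpolation of the resulting dose-response curve. GI50: concentration for 50% inhibition of growth. TGI is the concentration that stops growth completely.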
Experiments:
Assay in all cases: NCI-60 cell line screen, 48 h
[1] = system: NCI-H226 lung
[2] = system: IGROV1 ovarian
[3] = system: MALME-3M melanoma
[4] = system: OVCAR-8 ovarian
[5] = system: PC-3 prostate
[6] = system: SNB-75 CNS
[7] = system: CCRF-CEM leukemia
[8] = system: CAKI-1 renal
[9] = system: UACC-62 melanoma
[10] = system: T-47D breast
[11] = system: NCI-H460 lung
[12] = system: ACHN renal
[13] = system: OVCAR-5 ovarian
[14] = system: EKVX NSCLC
[15] = system: A549 NSCLC
[16] = system: SK-MEL-2 melanoma
[17] = system: HCC-2998 colon
[18] = system: RXF 393 renal
[19] = system: TK-10 renal
[20] = system: K-562 leukemia
[21] = system: SN12C renal
[22] = system: SW-620 colon
[23] = system: MDA-MB-435
[24] = system: HCT-116 colon
[25] = system: HOP-92 NSCLC
[26] = system: U251 CNS
[27] = system: NCI-H522 lung
[28] = system: MCF7 breast
[29] = system: HL-60(TB) leukemia
[30] = system: NCI-H23 lung
[31] = system: SR leukemia
[32] = system: HCT-15 colon
[33] = system: BT-549 breast
[34] = system: HS 578T breast
[35] = system: M14 melanoma
[36] = system: SF-268 CNS
[37] = system: OVCAR-4 ovarian
[38] = system: SF-539 CNS
[39] = system: KM12 colon
[40] = system: SK-MEL-5 melanoma
[41] = system: RPMI-8226 leukemia
[42] = system: MDA-MB-231 breast
[43] = system: OVCAR-3 ovarian
[44] = system: NCI/ADR-RES ovarian
[45] = system: DU-145 prostate
[46] = system: SK-MEL-28 melanoma
[47] = system: UO-31 renal
[48] = system: HT29 colon
[49] = system: HOP-62 NSCLC
[50] = system: SNB-19 CNS
[51] = system: 786-0 renal
[52] = system: SK-OV-3 ovarian
[53] = system: MOLT-4 leukemia
[54] = system: COLO 205 colon
[55] = system: A498 renal
[56] = system: UACC-257 melanoma
[57] = system: LOX IMVI melanoma
[58] = system: SF-295 CNS

COc1ccc2c(c1)C(=O)c1c-2c(OCCN(C)C)nc2ccccc12
GI50 [1]: 2.15 µM | TGI [1]: 10.4 µM | GI50 [2]: 2970 nM | TGI [2]: 14.8 µM | GI50 [3]: 2.46 µM | TGI [3]: 8.65 µM | GI50 [4]: 2540 nM | TGI [4]: 11.9 µM | GI50 [5]: 4.99 µM | TGI [5]: 21.4 µM | GI50 [6]: 7.62 µM | TGI [6]: 21.6 µM | GI50 [7]: 825 nM | TGI [7]: 10.4 µM | GI50 [8]: 1.47 µM | TGI [8]: 4.14 µM | GI50 [9]: 3.9 µM | TGI [9]: 15.7 µM | GI50 [10]: 4.05 µM | TGI [10]: 18.3 µM | GI50 [11]: 1150 nM | TGI [11]: 4.33 µM | GI50 [12]: 1.62 µM | TGI [12]: 5.47 µM | GI50 [13]: 4.53 µM | TGI [13]: 18.5 µM | GI50 [14]: 2050 nM | TGI [14]: 7.8 µM | GI50 [15]: 1330 nM | TGI [15]: 4.54 µM | GI50 [16]: 12.2 µM | TGI [16]: 25.7 µM | GI50 [17]: 3.89 µM | TGI [17]: 14.5 µM | GI50 [18]: 3.79 µM | TGI [18]: 15.7 µM | GI50 [19]: 7.56 µM | TGI [19]: 20.8 µM | GI50 [20]: 1600 nM | TGI [20]: 10.3 µM | GI50 [21]: 1.69 µM | TGI [21]: 10.6 µM | GI50 [22]: 823 nM | TGI [22]: 3.26 µM | GI50 [23]: 2.58 µM | TGI [23]: 10.1 µM | GI50 [24]: 768 nM | TGI [24]: 10.8 µM | GI50 [25]: 8.05 µM | TGI [25]: 81.8 µM | GI50 [26]: 2.28 µM | TGI [26]: 9.87 µM | GI50 [27]: 1870 nM | TGI [27]: 4.75 µM | GI50 [28]: 1.76 µM | TGI [28]: 10.9 µM | GI50 [29]: 3.19 µM | TGI [29]: 15.4 µM | GI50 [30]: 3800 nM | TGI [30]: 16.7 µM | GI50 [31]: 0.998 µM | TGI [31]: 6.76 µM | GI50 [32]: 2020 nM | TGI [32]: 11.3 µM | GI50 [33]: 12 µM | TGI [33]: 26 µM | GI50 [34]: 3.57 µM | TGI [34]: 12.2 µM | GI50 [35]: 3.85 µM | TGI [35]: 15 µM | GI50 [36]: 2.34 µM | TGI [36]: 10.7 µM | GI50 [37]: 3.03 µM | TGI [37]: 10.8 µM | GI50 [38]: 4.75 µM | TGI [38]: 17.9 µM | GI50 [39]: 1190 nM | TGI [39]: 3.28 µM | GI50 [40]: 4.6 µM | TGI [40]: 16.6 µM | GI50 [41]: 2850 nM | TGI [41]: 13.9 µM | GI50 [42]: 4.02 µM | TGI [42]: 20.8 µM | GI50 [43]: 2.48 µM | TGI [43]: 7.01 µM | GI50 [44]: 3.05 µM | TGI [44]: 14.5 µM | GI50 [45]: 2.91 µM | TGI [45]: 9 µM | GI50 [46]: 4.53 µM | TGI [46]: 15.4 µM | GI50 [47]: 0.962 µM | TGI [47]: 2760 nM | GI50 [48]: 1.46 µM | TGI [48]: 5.01 µM | GI50 [49]: 2.29 µM | TGI [49]: 12.7 µM | GI50 [50]: 2.68 µM | TGI [50]: 12.4 µM | GI50 [51]: 4.06 µM | TGI [51]: 16.5 µM | GI50 [52]: 4.87 µM | TGI [52]: 35.3 µM | GI50 [53]: 524 nM | TGI [53]: 5.64 µM | GI50 [54]: 1.83 µM | TGI [54]: 10.1 µM | GI50 [55]: 1.87 µM | TGI [55]: 10.7 µM | GI50 [56]: 3.06 µM | TGI [56]: 10.9 µM | GI50 [57]: 1540 nM | TGI [57]: 4.91 µM

O=C1C(OCCOc2ccccc2)=C(OCCOc2ccccc2)C(=O)c2ccccc21
GI50 [1]: 22.1 µM | TGI [1]: > 100 µM | GI50 [2]: > 100000 nM | TGI [2]: > 100 µM | GI50 [3]: 24.5 µM | TGI [3]: > 100 µM | GI50 [4]: > 100000 nM | TGI [4]: > 100 µM | GI50 [5]: 17.2 µM | TGI [5]: > 100 µM | GI50 [6]: 20.1 µM | TGI [6]: > 100 µM | GI50 [7]: > 100000 nM | TGI [7]: > 100 µM | GI50 [8]: 12.5 µM | TGI [8]: > 100 µM | GI50 [9]: 6.79 µM | TGI [9]: > 100 µM | GI50 [10]: > 100 µM | TGI [10]: > 100 µM | GI50 [11]: 3050 nM | TGI [11]: 10.5 µM | GI50 [58]: 5.11 µM | TGI [58]: > 100 µM | GI50 [12]: 5.09 µM | TGI [12]: > 100 µM | GI50 [13]: > 100 µM | TGI [13]: > 100 µM | GI50 [14]: > 100000 nM | TGI [14]: > 100 µM | GI50 [15]: 4620 nM | TGI [15]: > 100 µM | GI50 [16]: 18.6 µM | TGI [16]: > 100 µM | GI50 [17]: 11.6 µM | TGI [17]: > 100 µM | GI50 [18]: 40.2 µM | TGI [18]: > 100 µM | GI50 [19]: > 100 µM | TGI [19]: > 100 µM | GI50 [20]: > 100000 nM | TGI [20]: > 100 µM | GI50 [21]: 4.38 µM | TGI [21]: 52 µM | GI50 [22]: 4700 nM | TGI [22]: > 100 µM | GI50 [23]: 35.4 µM | TGI [23]: > 100 µM | GI50 [24]: 3130 nM | TGI [24]: > 100 µM | GI50 [25]: 1.21 µM | TGI [25]: > 100 µM | GI50 [26]: 5 µM | TGI [26]: > 100 µM | GI50 [27]: 3930 nM | TGI [27]: > 100 µM | GI50 [28]: 7.74 µM | TGI [28]: > 100 µM | GI50 [29]: > 100 µM | TGI [29]: > 100 µM | GI50 [30]: 1820 nM | TGI [30]: 24.3 µM | GI50 [31]: 7.26 µM | TGI [31]: > 100 µM | GI50 [32]: 3140 nM | TGI [32]: > 100 µM | GI50 [33]: > 100 µM | TGI [33]: > 100 µM | GI50 [34]: 8.96 µM | TGI [34]: > 100 µM | GI50 [36]: 6.31 µM | TGI [36]: > 100 µM | GI50 [37]: 7.1 µM | TGI [37]: > 100 µM | GI50 [38]: > 100 µM | TGI [38]: > 100 µM | GI50 [39]: 4710 nM | TGI [39]: > 100 µM | GI50 [40]: 1.92 µM | TGI [40]: 4.86 µM | GI50 [41]: > 100000 nM | TGI [41]: > 100 µM | GI50 [42]: > 100 µM | TGI [42]: > 100 µM | GI50 [43]: 6.5 µM | TGI [43]: > 100 µM | GI50 [44]: 7.64 µM | TGI [44]: > 100 µM | GI50 [45]: 7.12 µM | TGI [45]: > 100 µM | GI50 [46]: 16.5 µM | TGI [46]: > 100 µM | GI50 [47]: 12.2 µM | TGI [47]: > 100000 nM | GI50 [48]: 9.95 µM | TGI [48]: > 100 µM | GI50 [49]: 9.26 µM | TGI [49]: > 100 µM | GI50 [50]: 11.1 µM | TGI [50]: > 100 µM | GI50 [51]: 34.6 µM | TGI [51]: > 100 µM | GI50 [52]: 23.1 µM | TGI [52]: > 100 µM | GI50 [53]: > 100000 nM | TGI [53]: > 100 µM | GI50 [54]: 41.9 µM | TGI [54]: > 100 µM | GI50 [55]: 18.2 µM | TGI [55]: > 100 µM | GI50 [56]: 3.72 µM | TGI [56]: > 100 µM | GI50 [57]: 3750 nM | TGI [57]: > 100 µM

Reference: PubChem BioAssay (NCI)
